Laboratory results: US20260347351A1, “INHIBITORS OF PDE11A4 AND METHODS OF USING SAME” (UNIVERSITY OF MARYLAND, BALTIMORE, priority 2022, published 2026)
Values after ≈ are worked out from the molar mass of the structure shown.

What was measured:
mPDE11A4 = mPDE11A4 (Mus musculus, UniProt P0C1Q2); assay: Reversal of aging-like punctate accumulations of EmGFP-mPDE11A4 in HT-22 hippocampal cells; format: cell-based; details: HT-22 cells overexpressing EmGFP-mPDE11A4
Method: In vivo, expression of PDE11A4 increases in the hippocampus across the lifespan in humans and rodents, resulting in age-related punctate accumulations of PDE11A4 protein in “ghost axons.” These age-related PDE11A4 accumulations were mimicked by overexpressing mouse PDE11A4 in mouse HT-22 hippocampal cells. FIGS. 31A-31B is an image of HT-22 cells overexpressing EmGFP-mPDE11A4 treated with the vehicle DMSO (FIG. 30A) or 1 uM 25b (FIG. 30B).
See FIGS. 35A and 35B, which show images of HT-22 cells overexpressing EmGFP-mPDE11A4 treated with the vehicle DMSO (35A) or 1 uM 25b (35B).

PDE11A4 = biological target: T1, PDE11A4 (Homo sapiens, UniProt Q9HCR9); assay: In vitro PDE11A4 enzyme inhibition assay (Ba(OH)2 precipitation method); format: biochemical; details: for IC50: in vitro
T1 construct: purchased BPS Bioscience
Method: In vitro enzyme assays are conducted via the Ba(OH)2 precipitation method of Wang et al. using commercially-available recombinant PDEs representing all 11 PDE families. Assays for PDE11A inhibition are carried out with both 200 nM cAMP and 100 nM cGMP. Substrate concentrations for the remaining PDEs are 100 nM cGMP (PDE1C), 1 μM cGMP (PDE2A), 30 nM cGMP (PDE3B), 120 nM cAMP (PDE4D), 500 nM cGMP (PDE5A), […] (PDE6C), 15 nM cAMP (PDE7A), 10 nM cAMP (PDE8A), 70 nM cGMP (PDE9A), and 30 nM cAMP (PDE10A).
These compounds were profiled further using additional commercially available analogs and by in vitro ADME characteristics. The synthesis of these analogs is illustrated in the schemes of FIGS. 24-26. […] In the rightmost column of FIG. 27B, percent (%) values refer to percent inhibition, and non-percent values refer to IC50 values.
In vitro enzyme assays were conducted via the Ba(OH)2 precipitation method of Wang et al. using recombinant human PDE3A, PDE4D3, PDE5A, PDE6C, PDE10A1, and PDE11A4 (BPS Bioscience)). Substrate concentrations used were 15 nM cGMP (PDE3A), 18 nM cAMP (PDE3A) 200 nM cAMP (PDE4D3), 500 nM cGMP (PDE5A), 1.7 μM cGMP (PDE6C), 30 nM cAMP (PDE10A), […] (PDE10A), 100 nM cGMP (PDE11A4) and 240 nM cAMP (PDE11A4). […] Inhibitor concentrations of 4, 13.7, 40, 123, 370, 1110, 3330 and 10,000 nM were used. The values reported are means of at least three independent experiments. Substrate concentrations were ~0.1×KM for each enzyme; thus, IC50 values approximate the Ki values.

MDCK cell monolayers = assay: MDCK / MDCK-MDR1 permeability and efflux; format: in vitro ADME; details: Example 4 Table 1
Method: MDCK permeability: MDCK cell monolayers (Absorption Systems, Malvern, PA) are grown to confluence on collagen-coated microporous membranes in 12-well assay plates. Assay buffer consists of Hanks' balanced salt solution containing 10 mM HEPES and 15 mM glucose at pH—7.4. The buffer in the receiver chamber also contains 1% bovine serum albumin. Compounds are tested at a final concentration of 5 μM in the assay buffer. Cell monolayers are dosed on the apical side (A-B) or basolateral side (B-A) and incubated at 37° C. with 5% CO2 in a humidified incubator. Samples are taken from the donor and receiver chambers at 120 minutes. Each determination is performed in duplicate. The flux of Lucifer yellow is also measured post-experimentally for each monolayer to ensure no damage is inflicted to the monolayer during flux period. Samples are assayed on a Waters TQ LC/MS/MS using positive or negative electrospray ionization.

[1] = Metabolic stability in human liver microsomes; format: in vitro ADME
Method: (§1) Metabolic stability: Samples at 37° C. in the presence of human or mouse liver microsomes and NADPH according to standard methods. Aliquots are removed at 5 time points, quenched and analyzed (LCMS/MS and MS/MS as needed) for remaining test compound, along with a positive control. Microsomal protein content is adjusted to give consistent results. Data are reported as half-life and clearance. Assay acceptance criteria is 20% for all standards and 25% for the LLOQ.

CYP2C9 = CYP2C9 (Homo sapiens, UniProt P11712); assay: CYP2C9 inhibition (fluorescent substrate); format: in vitro ADME; details: Example 4 Table 1
Method: (§2) CYP inhibition: Compounds are assessed for their ability to inhibit the three major human cytochrome P450 enzymes, 3A4, 2D6 and 2C9. Expressed enzymes are used to minimize non-specific binding and membrane partitioning issues. The 3A4 assay uses testosterone as a substrate and is analyzed by LC/MS/MS on a Waters TQ instrument using positive or negative electrospray ionization. The 2D6 and 2C9 assays use fluorescent substrates and are analyzed on an Envision Plate Reader.

[2] = Kinetic aqueous solubility, pH 7.4; format: physicochemical; details: aqueous buffer, PBS, Example 4 Table 1
Method: The mixture is agitated at 25° C. for 1 hour, filtered and evaluated by UV and/or LCMSMS analysis. Data are reported as mg/mL and μM concentration.

CYP2D6 = CYP2D6 (Homo sapiens, UniProt P10635); assay: CYP2D6 inhibition (fluorescent substrate); format: in vitro ADME; details: Example 4 Table 1
Method: as §2

CYP3A4 = CYP3A4 (Homo sapiens, UniProt P08684); assay: CYP3A4 inhibition (testosterone substrate); format: in vitro ADME; details: Example 4 Table 1
Method: as §2

[3] = Metabolic stability in mouse liver microsomes; format: in vitro ADME
Method: as §1

T1 sequence (Q9HCR9 whole entry): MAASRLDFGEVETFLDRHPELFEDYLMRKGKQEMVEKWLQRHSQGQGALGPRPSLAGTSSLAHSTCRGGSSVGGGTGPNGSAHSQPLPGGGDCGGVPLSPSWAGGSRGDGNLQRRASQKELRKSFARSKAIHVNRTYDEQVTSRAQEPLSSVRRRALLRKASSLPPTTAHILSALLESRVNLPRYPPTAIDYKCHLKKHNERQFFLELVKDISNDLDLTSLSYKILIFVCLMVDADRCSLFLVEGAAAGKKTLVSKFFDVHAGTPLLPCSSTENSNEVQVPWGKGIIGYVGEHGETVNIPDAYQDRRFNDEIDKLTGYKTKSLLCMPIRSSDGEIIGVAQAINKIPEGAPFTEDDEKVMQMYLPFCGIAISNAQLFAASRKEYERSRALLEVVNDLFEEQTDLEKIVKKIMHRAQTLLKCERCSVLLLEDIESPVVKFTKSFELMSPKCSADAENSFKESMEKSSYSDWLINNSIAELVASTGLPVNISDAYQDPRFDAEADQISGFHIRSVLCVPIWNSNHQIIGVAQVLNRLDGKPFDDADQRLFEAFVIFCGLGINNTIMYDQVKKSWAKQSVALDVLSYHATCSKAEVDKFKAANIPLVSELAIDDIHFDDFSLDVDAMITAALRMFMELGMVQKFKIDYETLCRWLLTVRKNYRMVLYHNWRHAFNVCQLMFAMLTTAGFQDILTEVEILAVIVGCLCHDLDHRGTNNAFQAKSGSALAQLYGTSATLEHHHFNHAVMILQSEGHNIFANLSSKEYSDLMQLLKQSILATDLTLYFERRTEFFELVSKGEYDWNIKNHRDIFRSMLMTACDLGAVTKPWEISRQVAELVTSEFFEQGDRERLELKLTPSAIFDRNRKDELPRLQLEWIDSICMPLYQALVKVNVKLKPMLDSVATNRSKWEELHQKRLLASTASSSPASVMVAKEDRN
mPDE11A4, sequence (P0C1Q2 whole entry): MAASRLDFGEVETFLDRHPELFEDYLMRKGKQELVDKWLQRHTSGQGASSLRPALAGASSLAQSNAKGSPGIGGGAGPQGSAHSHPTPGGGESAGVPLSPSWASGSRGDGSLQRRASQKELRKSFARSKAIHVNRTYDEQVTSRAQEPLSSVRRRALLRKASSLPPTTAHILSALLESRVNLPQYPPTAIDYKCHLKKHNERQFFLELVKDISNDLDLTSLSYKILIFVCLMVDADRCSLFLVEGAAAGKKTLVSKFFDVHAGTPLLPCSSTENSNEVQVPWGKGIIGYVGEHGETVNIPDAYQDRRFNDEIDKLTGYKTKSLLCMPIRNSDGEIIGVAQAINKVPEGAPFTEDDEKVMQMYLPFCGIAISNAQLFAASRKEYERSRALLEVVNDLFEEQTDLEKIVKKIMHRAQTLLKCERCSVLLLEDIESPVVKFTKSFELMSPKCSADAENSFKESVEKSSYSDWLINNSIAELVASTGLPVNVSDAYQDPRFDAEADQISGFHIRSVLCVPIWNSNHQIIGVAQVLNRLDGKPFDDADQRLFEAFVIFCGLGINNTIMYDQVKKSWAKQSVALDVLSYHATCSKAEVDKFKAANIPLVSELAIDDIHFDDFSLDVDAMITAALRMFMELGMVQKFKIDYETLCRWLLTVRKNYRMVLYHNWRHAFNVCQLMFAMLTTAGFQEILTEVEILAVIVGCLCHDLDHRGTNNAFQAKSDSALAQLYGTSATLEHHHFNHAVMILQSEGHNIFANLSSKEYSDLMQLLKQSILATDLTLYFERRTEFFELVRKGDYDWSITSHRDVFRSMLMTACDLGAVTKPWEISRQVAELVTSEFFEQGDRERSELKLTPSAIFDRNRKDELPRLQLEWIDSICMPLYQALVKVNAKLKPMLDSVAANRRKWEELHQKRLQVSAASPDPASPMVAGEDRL
CYP3A4, sequence (P08684 whole entry): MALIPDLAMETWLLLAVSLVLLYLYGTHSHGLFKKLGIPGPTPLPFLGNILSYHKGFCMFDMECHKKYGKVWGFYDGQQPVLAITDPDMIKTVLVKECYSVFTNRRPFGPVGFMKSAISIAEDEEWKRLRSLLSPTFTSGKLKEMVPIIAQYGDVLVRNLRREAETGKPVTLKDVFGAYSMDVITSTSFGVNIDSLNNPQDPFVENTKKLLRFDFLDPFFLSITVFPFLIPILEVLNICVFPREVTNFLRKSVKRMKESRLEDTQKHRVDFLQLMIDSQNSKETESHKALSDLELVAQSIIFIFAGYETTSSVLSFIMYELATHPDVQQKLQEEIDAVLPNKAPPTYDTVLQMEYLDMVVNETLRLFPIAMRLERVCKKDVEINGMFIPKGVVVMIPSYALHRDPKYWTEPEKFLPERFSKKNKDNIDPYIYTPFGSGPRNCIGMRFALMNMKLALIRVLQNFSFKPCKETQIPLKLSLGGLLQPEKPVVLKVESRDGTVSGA
CYP2D6, sequence (P10635 whole entry): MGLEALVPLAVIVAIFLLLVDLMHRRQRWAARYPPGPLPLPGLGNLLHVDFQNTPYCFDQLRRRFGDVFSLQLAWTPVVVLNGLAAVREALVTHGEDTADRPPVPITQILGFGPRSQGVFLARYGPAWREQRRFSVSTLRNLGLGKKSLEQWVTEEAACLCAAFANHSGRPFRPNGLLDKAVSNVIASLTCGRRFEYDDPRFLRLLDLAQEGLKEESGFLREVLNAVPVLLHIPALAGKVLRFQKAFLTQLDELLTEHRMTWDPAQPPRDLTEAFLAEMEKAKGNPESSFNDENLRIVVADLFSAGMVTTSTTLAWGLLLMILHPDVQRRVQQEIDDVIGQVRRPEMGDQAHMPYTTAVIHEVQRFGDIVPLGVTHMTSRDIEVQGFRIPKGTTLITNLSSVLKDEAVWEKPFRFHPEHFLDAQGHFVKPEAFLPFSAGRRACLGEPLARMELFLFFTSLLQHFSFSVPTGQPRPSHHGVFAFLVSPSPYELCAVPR
CYP2C9, sequence (P11712 whole entry): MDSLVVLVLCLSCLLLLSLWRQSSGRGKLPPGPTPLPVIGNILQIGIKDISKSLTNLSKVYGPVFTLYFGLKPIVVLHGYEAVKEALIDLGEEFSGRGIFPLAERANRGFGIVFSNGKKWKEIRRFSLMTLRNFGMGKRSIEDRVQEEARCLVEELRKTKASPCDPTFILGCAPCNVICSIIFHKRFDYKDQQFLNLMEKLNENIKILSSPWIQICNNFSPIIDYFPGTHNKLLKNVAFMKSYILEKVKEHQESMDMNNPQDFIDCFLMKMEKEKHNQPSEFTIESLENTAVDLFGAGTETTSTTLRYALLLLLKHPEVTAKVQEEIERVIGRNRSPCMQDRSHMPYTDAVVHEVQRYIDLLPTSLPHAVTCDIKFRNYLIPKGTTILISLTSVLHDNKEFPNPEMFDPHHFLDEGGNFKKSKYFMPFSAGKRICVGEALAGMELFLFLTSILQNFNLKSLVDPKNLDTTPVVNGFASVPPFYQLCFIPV

## CCCSc1nc2c(c(=O)n1-c1ccccc1)SCC2 [BC11-38]
mPDE11A4
  reversal of aging-like accumulations of mPDE11A4: able to reverse these aging-like accumulations of mPDE11A4

## CN1CC(=O)N2[C@H](c3ccc4c(c3)OCO4)c3[nH]c4ccccc4c3C[C@@H]2C1=O [Tadalafil, tadalafil]
mPDE11A4
  reversal of aging-like accumulations of mPDE11A4: able to reverse these aging-like accumulations of mPDE11A4

## CCn1nccc1-c1cc(-c2ncc(C)o2)c2cnn(-c3ccccc3)c2n1 [Compound 1003]
PDE11A4
  IC50: 140 nM

## CCN(CC)C(=O)c1cc(-c2cccs2)nc2c1c(C)nn2-c1ccccc1 [Compound 3001]
MDCK cell monolayers
  MDCK1 A:B: 0.78
[1]; Example 4 Table 1, read-out: Human Liver Microsome Clint
  microsomal CLint: > 690 µL/min/mg
[1]; Example 4 Table 1, read-out: Human Liver Microsome Stability t½
  half-life: < 2 min
CYP2C9
  IC50: 4900 nM
[2]
  solubility: 54 µM (≈ 21.1 µg/mL)
CYP2D6
  IC50: > 10000 nM
CYP3A4
  IC50: 3000 nM
[3]; Example 4 Table 1, read-out: Mouse Liver Microsome Clint
  microsomal CLint: > 690 µL/min/mg
[3]; Example 4 Table 1, read-out: Mouse Liver Microsome Stability t½
  half-life: < 2 min

## CCn1nccc1-c1cc(-c2ncc(C)s2)c2cnn(-c3ccccc3)c2n1 [Compound 1001]
PDE11A4; @500 nM
  inhibition at 0.5 µM: 62%

## CCn1nccc1-c1cc(-c2nnc(C)o2)c2cnn(-c3ccccc3)c2n1 [Compound 1007]
PDE11A4
  IC50: 70 nM

## CCn1nccc1-c1cc(-c2nnc(C)s2)c2cnn(-c3ccccc3)c2n1 [Compound 1005]
PDE11A4
  IC50: 170 nM
